According to patent publication US11542273B2, “Amide compound having bet proteolysis-inducing action and medicinal application thereof” (MITSUBISHI TANABE PHARMA CORPORATION, priority 2018, dated 2023):
Read-outs that look alike come from different tables or passages of the source.

Assays:
[1] = test system: human triple negative breast cancer MDA-MB-231 cell; test: Cytotoxic action on cancer cells (WST-8, 96 hr); assay type: cell-based; details: MDA-MB-231 cells, 96 hr culture
In short: (§1)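 Cells in 10% FBS/RPMI1640 were seeded, cultured overnight at 37 °C with 5% CO2, then exposed to compound for 96 hr. Viable cells were measured with WST-8 against compound-free controls. IC50 was interpolated linearly between the two concentrations bracketing 50% survival.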

[2] = test system: human castration-resistant prostate cancer PC-3 cell; test: Cytotoxic action on cancer cells (WST-8, 96 hr); assay type: cell-based; details: PC-3 cells (printed P0-3 in table), 96 hr culture
In short: as §1

[3] = test system: human large cell lung cancer NCI-H460 cell; test: Cytotoxic action on cancer cells (WST-8, 96 hr); assay type: cell-based; details: 96 hr culture
In short: as §1

[4] = test system: human uterine sarcoma MES-SA cell; test: Cytotoxic action on cancer cells (WST-8, 96 hr); assay type: cell-based; details: 96 hr culture
In short: as §1

[5] = test system: human multiple myeloma MM.1S cell; test: Cytotoxic action on cancer cells (WST-8, 96 hr); assay type: cell-based; details: MM1.S, MM.1S cells, 96 hr culture
In short: as §1

[6] = test system: human T-cell leukemia Jurkat cells; test: Cytotoxic action on cancer cells (WST-8, 96 hr); assay type: cell-based; details: 96 hr culture
In short: as §1

[7] = test system: human glioma U-87 MG cell; test: Cytotoxic action on cancer cells (WST-8, 96 hr); assay type: cell-based; details: U-87 MG cells, 96 hr culture
In short: as §1

[8] = test system: human gastric cancer SNU-16 cell; test: Cytotoxic action on cancer cells (WST-8, 96 hr); assay type: cell-based; details: SNU-16 cells, 96 hr culture
In short: as §1

[9] = test system: human chronic myeloid leukemia K562 cell; test: Cytotoxic action on cancer cells (WST-8, 96 hr); assay type: cell-based; details: 96 hr culture
In short: as §1

[10] = test system: human bladder cancer 5637 cell; test: Cytotoxic action on cancer cells (WST-8, 96 hr); assay type: cell-based; details: 5637 cells, 96 hr culture
In short: as §1

[11] = test system: human prostate cancer LNCaP cells; test: Cytotoxic action on cancer cells (WST-8, 96 hr); assay type: cell-based; details: read-out: LNCaP cytotoxic activity: IC50
In short: as §1

[12] = test system: human pancreatic cancer AsPC-1 cell; test: Cytotoxic action on cancer cells (WST-8, 96 hr); assay type: cell-based; details: ASPC1, AsPC-1 cells, 96 hr culture
In short: as §1

[13] = test system: human colorectal cancer HCT116 cell; test: Cytotoxic action on cancer cells (WST-8, 96 hr); assay type: cell-based; details: HCT-116, 96 hr culture
In short: as §1

[14] = test system: human ovarian cancer A2780 cell; test: Cytotoxic action on cancer cells (WST-8, 96 hr); assay type: cell-based; details: 96 hr culture
In short: as §1

[15] = test system: human non-small cell lung cancer NCI-H1975 cell; test: Cytotoxic action on cancer cells (WST-8, 96 hr); assay type: cell-based; details: 96 hr culture
In short: as §1

[16] = test system: human small cell lung cancer NCI-H82 cell; test: Cytotoxic action on cancer cells (WST-8, 96 hr); assay type: cell-based; details: 96 hr culture
In short: as §1

[17] = test system: human diffuse large B-cell lymphoma SU-DHL-6 cell; test: Cytotoxic action on cancer cells (WST-8, 96 hr); assay type: cell-based; details: SU-DHL-6 cells, 96 hr culture
In short: as §1

[18] = test system: human breast cancer ZR-75-1 cell; test: Cytotoxic action on cancer cells (WST-8, 96 hr); assay type: cell-based; details: ZR-75-1 cells, 96 hr culture
In short: as §1

[19] = test system: human acute myeloid leukemia MV-4-11 cell; test: Cytotoxic action on cancer cells (WST-8, 96 hr); assay type: cell-based; details: MV4-11, MV-4-11 cells, 96 hr culture
In short: as §1

[20] = test system: human liver cancer Hep G2 cell; test: Cytotoxic action on cancer cells (WST-8, 96 hr); assay type: cell-based; details: HepG2, 96 hr culture
In short: as §1

[21] = test system: human Burkitt lymphoma Raji cell; test: Cytotoxic action on cancer cells (WST-8, 96 hr); assay type: cell-based; details: 96 hr culture
In short: as §1

[22] = target: BRD4 bromodomain 1 (Homo sapiens (Human), UniProt O60885); test: Inhibitory action on binding of BRD4 protein and ligand, Test Method 1 (TR-FRET, BRD4 bromodomain 1 TR-FRET Assay Kit); details: Test Method 1, BRD4 bromodomain 1 and ligand
Description: The inhibitory action of the compound of the present invention on the binding of BRD4 protein and a ligand thereof was evaluated by the time-resolved fluorescence resonance energy transfer (TR-FRET) method using BRD4 bromodomain 1 TR-FRET Assay Kit (Cayman). In this experiment, (+)-JQ1 known to have an inhibitory activity on the binding of BRD4 protein and a ligand therefor was used as a positive control drug. A test compound dissolved in DMSO was diluted with TR-FRET Assay Buffer, added to a 384 well black plate, BRD4 bromodomain 1 Europium Chelete was further added and the cells were incubated at room temperature for 15 min. Thereafter, BRD4 bromodomain 1 Ligand/APC Acceptor Mixture was added and the cells were incubated at room temperature for 1 hr. The binding amount of the BRD4 protein and ligand was measured as fluorescence intensity (excitation: 340 nm/emission: 620 nm and excitation: 340 nm/emission: 670 nm).
It was calculated from the straight line connecting the degradation rate at two points enclosing the 50% fluorescence intensity and the compound concentration.

[23] = target: BRD4 protein (Homo sapiens (Human), UniProt O60885); test: BRD4 protein degradation inducing action in cancer cells (immunofluorescence, Operetta); assay type: cell-based; details: LNCaP cells, 6 hr treatment, fluorescence intensity
In short: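 LNCaP prostate cancer cells in 10% FBS/RPMI1640 were exposed to compound for 6 hr at 37° C, then fixed, permeabilized and immunostained for BRD4 with Alexa Fluor 488 or 546 secondary antibodies plus Hoechst nuclear stain. Fluorescence was read by high-content imaging; DC50 is the concentration giving 50% of untreated signal, interpolated linearly between bracketing points.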

[24] = target: BRD4-1 (GST) (Homo sapiens (Human), UniProt O60885); test: Inhibitory action on binding of BRD4 protein and acetylated histone H4, Test Method 2 (TR-FRET); details: Test Method 2, BRD4-1 (GST) and acetylated histone H4, TR-FRET
Description: The inhibitory action of the compound of the present invention on the binding of BRD4 protein and a ligand thereof (acetylated histone H4) was evaluated by the time-resolved fluorescence resonance energy transfer (TR-FRET) method using EPIgeneous™ Binding Domain Kit A (Cisbio), BRD4-1 (GST) (Reaction Biology Corp) and [Lys(Ac)5/8/12/16]-Histone H4(1-21)-GGK (Biotin) (Eurogentec). In this experiment, (+)-JQ1 known to have an inhibitory activity on the binding of BRD4 protein and acetylated histone H4 therefor was used as a positive control drug. A test compound dissolved DMSO was diluted with attached Diluent Buffer, added to a 384 well white plate, and BRD4-1 (GST) and [Lys(Ac)5/8/12/16]-Histone H4(1-21)-GGK (Biotin) were further added. Thereafter, Streptavidin-d2 conjugate and Anti-GST-Eu^3+ Cryptate Conjugate were added and the cells were incubated at room temperature for 3 hr. The binding amount of the BRD4 protein and acetylated histone H4 was measured as the fluorescence intensity (excitation: 314 nm/emission: 620 nm and excitation: 314 nm/emission: 665 nm). […] It was calculated from the straight line connecting the degradation rate at two points enclosing the 50% fluorescence intensity and the compound concentration.

[25] = test system: human acute myeloid leukemia MV-4-11 cell transplanted mouse; test: Antitumor effect in human acute myeloid leukemia MV-4-11 cell transplanted mouse; assay type: in vivo; details: MV4-11, iv, 360 h, read-out: tumor growth inhibitory rate
Description: The in vivo antitumor effect of the compound of the present invention was studied using human acute myeloid leukemia MV-4-11 cell transplanted mouse. MV-4-11 cells were subcutaneously transplanted into the inguinal region of male, 6-week-old BALB/c nude mouse (5×10^6 cells/mouse). The compound of the present invention was administered into the tail vein on days 1, 5, 9, 13 from the time point when the assumed tumor volume determined from 1/2ab^2 (a is major axis and b is minor axis of tumor) reached about 100 mm^3 (day 1). The control group was administered with a solvent, 10% hydroxypropyl-β-cyclodextrin solution. On day 15, the tumor was isolated, the weight was measured, and the tumor growth inhibitory rate IR (%) was calculated by the following formula. tumor growth inhibitory rate IR (%)=(1−tumor weight of administration group/tumor weight of nonadministration control group)×100

With `COC(=O)C[C@@H]1N=C(c2ccc(-c3ccc(OCCOCC(=O)N[C@H](C(=O)N4C[C@H](O)C[C@H]4C(=O)N[C@@H](C)c4ccc(-c5scnc5C)cc4)C(C)(C)C)c(C#N)c3)cc2)c2c(sc(C)c2C)-n2c(C)nnc21` [Example 8, methyl [(6S)-4-(3′-cyano-4′-{2-[2-({(2S)-1-[(2S,4R)-4-hydroxy-2-({(1S)-1-[4-(4-methyl-1,3-thiazol-5-yl)phenyl]ethyl}carbamoyl)pyrrolidin-1-yl]-3,3-dimethyl-1-oxobutan-2-yl}amino)-2-oxoethoxy]ethoxy}[1,1′-biphenyl]-4-yl)-2,3,9-trimethyl-6H-thieno[3,2-f][1,2,4]triazolo[4,3-a][1,4]diazepin-6-yl]acetate] the IC50 [1] was 14 nM, the IC50 [2] was 2.5 nM and the IC50 [3] was 75 nM. It also gave an IC50 [4] of 21 nM, an IC50 [5] of 0.24 nM and an IC50 [6] of 4.3 nM. For the same compound, the IC50 [7] was 25 nM, the IC50 [8] was 17 nM and the IC50 [9] was 5.2 nM. For the same compound, the IC50 [10] was 2.1 nM, the IC50 ([11]; Homo sapiens, LNCaP, 96 h) was 0.68 nM and the IC50 [12] was 81 nM. The IC50 [13] was 37 nM, the IC50 [14] was 0.36 nM and the IC50 [15] was 20 nM. For the same compound, the IC50 [16] was 35 nM, the IC50 [17] was 2.1 nM and the IC50 [18] was 4.2 nM. It also gave an IC50 [19] of 0.15 nM, an IC50 [20] of 48 nM and an IC50 [21] of 5.7 nM. The IC50 [22] was 0.082 µM and the DC50 [23] was 0.41 nM.
(+)-JQ1 [reference compound] was tested, and the IC50 ([11]; LNCaP cells, 96 hr culture, WST-8) was 19000 nM, the IC50 [22] was 7.4 µM and the IC50 [24] was 550 nM.
Compound `COC(=O)C[C@@H]1N=C(c2ccc(-c3ccc(OCC(=O)N[C@H](C(=O)N4C[C@H](O)C[C@H]4C(=O)NCc4ccc(-c5scnc5C)cc4)C(C)(C)C)cc3)cc2)c2c(sc(C)c2C)-n2c(C)nnc21` [Example 61, methyl [(6S)-4-{4′-[2-({(25)-1-[(2S,4R)-4-hydroxy-2-({[4-(4-methyl-1,3-thiazol-5-yl)phenyl]methyl}carbamoyl)pyrrolidin-1-yl]-3,3-dimethyl-1-oxobutan-2-yl}amino)-2-oxoethoxy][1,1′-biphenyl]-4-yl}-2,3,9-trimethyl-6H-thieno[3,2-f][1,2,4]triazolo[4,3-a][1,4]diazepin-6-yl]acetate] has an IC50 ([11]; Homo sapiens, LNCaP, 96 h) of 0.17 nM, a DC50 [23] of 0.81 nM and an inhibition in vivo at 3 mg/kg [25] of 97.2%.
Compound `COC(=O)C[C@@H]1N=C(c2ccc(-c3ccc(C(=O)N[C@H](C(=O)N4C[C@H](O)C[C@H]4C(=O)N[C@@H](C)c4ccc(-c5scnc5C)cc4)C(C)(C)C)cc3F)cc2)c2c(sc(C)c2C)-n2c(C)nnc21` [Example 62, methyl {(6S)-4-[2′-fluoro-4′-({(2S)-1-[(2S,4R)-4-hydroxy-2-({(1S)-1-[4-(4-methyl-1,3-thiazol-5-yl)phenyl]ethyl}carbamoyl)pyrrolidin-1-yl]-3,3-dimethyl-1-oxobutan-2-yl}carbamoyl) [1,1′-biphenyl]-4-yl]-2,3,9-trimethyl-6H-thieno[3,2-f][1,2,4]triazolo[4,3-a][1,4]diazepin-6-yl}acetate] has an IC50 ([11]; Homo sapiens, LNCaP, 96 h) of 0.26 nM, a DC50 [23] of 0.24 nM and an inhibition in vivo at 0.3 mg/kg [25] of 95.6%. The inhibition in vivo at 3 mg/kg [25] was 97.4%.
